Results from the NIST ThermoML archive (doi:10.1016/j.jct.2008.03.008).
± gives the expanded uncertainty stated by the source.

Assay: molar enthalpy of vaporization or sublimation
Conditions: 298.15 K, Liquid

Compound | molar enthalpy (Flow calorimetry) | molar enthalpy (Vacuum sublimation drop method)
CC(=O)c1cc(C)cs1 [2-acetyl-4-methylthiophene] | 63 ± 5.2 kJ/mol | 
CC(=O)c1sccc1C [2-acetyl-3-methylthiophene] |  | 57.1 ± 4.8 kJ/mol
CC(=O)c1ccc(C)s1 [2-acetyl-5-methylthiophene] | 62 ± 5.2 kJ/mol | 
